Test results published in patent US20240116985A1, “STAPLED PEPTIDES AND METHODS THEREOF” (priority 2020, published 2024).
pIC50: −log10 of the molar value. Converted amounts (≈) assume the structure as drawn. Like-named read-outs stand apart in the source and are kept apart here.

Key:
[1] = molecular target: T1, full-length beta-Catenin (Uniprot ID P35222) (Homo sapiens, UniProt P35222); assay: Fluorescence polarization IC50 (beta-catenin / 5FAM-TCF4 10-53 competition); assay type: binding
T1 construct: 10 nM full-length beta-Catenin (Uniprot ID P35222)
T1 sequence (P35222 1-781): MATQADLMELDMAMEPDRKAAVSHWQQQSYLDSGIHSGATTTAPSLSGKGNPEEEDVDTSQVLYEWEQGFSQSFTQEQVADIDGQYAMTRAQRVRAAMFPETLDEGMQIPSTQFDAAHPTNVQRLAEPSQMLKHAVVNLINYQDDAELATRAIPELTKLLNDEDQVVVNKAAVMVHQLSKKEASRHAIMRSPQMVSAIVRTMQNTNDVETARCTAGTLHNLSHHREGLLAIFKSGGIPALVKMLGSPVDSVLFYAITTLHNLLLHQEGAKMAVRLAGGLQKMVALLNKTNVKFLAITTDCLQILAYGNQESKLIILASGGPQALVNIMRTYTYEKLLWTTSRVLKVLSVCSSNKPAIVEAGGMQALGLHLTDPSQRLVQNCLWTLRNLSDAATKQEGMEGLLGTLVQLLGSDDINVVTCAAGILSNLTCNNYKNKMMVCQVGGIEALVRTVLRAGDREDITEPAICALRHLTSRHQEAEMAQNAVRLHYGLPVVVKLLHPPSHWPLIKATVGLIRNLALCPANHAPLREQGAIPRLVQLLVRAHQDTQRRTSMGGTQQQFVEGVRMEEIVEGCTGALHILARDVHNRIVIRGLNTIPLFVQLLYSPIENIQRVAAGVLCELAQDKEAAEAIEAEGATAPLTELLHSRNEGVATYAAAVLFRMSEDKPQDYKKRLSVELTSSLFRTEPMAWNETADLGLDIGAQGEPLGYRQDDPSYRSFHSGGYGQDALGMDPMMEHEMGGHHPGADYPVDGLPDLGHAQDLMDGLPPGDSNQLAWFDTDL

[2] = CHI Log D procedure; assay type: physicochemical; conditions: for CHI Log D: pH 7.4
[3] = Solubility in PBS; assay type: physicochemical
How it was run: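 PBS sample ultracentrifuged; supernatant run on HPLC vs. 50 μM peptide in DMSO standard. Solubility = (PBS peak area / DMSO peak area) × 50 uM.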

[4] = fluorescence polarization, read-out: beta-Catenin FP IC50

Compound	pIC50 [1, 4]	pIC50 ([1]; read-out: FP EC50)	CHI Log D [2]	Solubility [3] [µM]	chromatographic logD ([2]; pH 7.4, CHI Log D)	Solubility ([3]; Solubility (uM)) [µM]
CC[C@H](C)[C@@H]1NC(=O)[C@H](CC(=O)O)NC(=O)[C@]2(CC=CCCCC3(CCCC=CCCCCCC[C@@](C)(C(=O)N[C@@H](Cc4ccccc4)C(=O)N[C@@H](Cc4csc5ccccc45)C(=O)N[C@H](C(N)=O)C(C)C)NC(=O)[C@H](CCC(N)=O)NC(=O)[C@H](Cc4ccccc4)NC(=O)[C@H](C)NC(=O)[C@H](C)NC(=O)[C@H](CCC(=O)O)NC(=O)[C@H](CC(=O)O)NC3=O)NC1=O)CCCN2C(C)=O (stereo partly drawn) [I-646, Ac-PL3-Asp-Ile-B5-Asp-Glu-Ala-Ala-Phe-Gln-S8-Phe-BztA-Val-NH2]	6.34	6.34	2.694	41 (≈ 76 µg/mL)		
CC[C@H](C)[C@@H]1NC(=O)[C@H](CC(=O)O)NC(=O)[C@]2(CC=CCCCC3(CCCC=CCCCCCC[C@@](C)(C(=O)N[C@@H](Cc4ccccc4)C(=O)N[C@@H](Cc4csc5ccccc45)C(=O)N[C@@H](CCC(N)=O)C(N)=O)NC(=O)[C@H](CCC(N)=O)NC(=O)[C@H](Cc4ccccc4)NC(=O)[C@H](C)NC(=O)[C@H](Cc4ccccc4)NC(=O)[C@H](CCC(=O)O)NC(=O)[C@H](CC(=O)O)NC3=O)NC1=O)CCCN2C(C)=O (stereo partly drawn) [I-650, Ac-PL3-Asp-Ile-B5-Asp-Glu-Phe-Ala-Phe-Gln-S8-Phe-BztA-Gln-NH2]	6.86	6.86	2.718	45 (≈ 88.2 µg/mL)		
CC[C@H](C)[C@@H]1NC(=O)[C@H](CC(=O)O)NC(=O)[C@]2(CC=CCCCC3(CCCC=CCCCCCC[C@@](C)(C(=O)N[C@@H](Cc4ccccc4)C(=O)N[C@@H](Cc4csc5ccccc45)C(=O)N[C@@H](CCC(N)=O)C(N)=O)NC(=O)[C@H](CCC(N)=O)NC(=O)[C@H](Cc4ccccc4)NC(=O)[C@H](C)NC(=O)[C@H](CO)NC(=O)[C@H](CCC(=O)O)NC(=O)[C@H](CC(=O)O)NC3=O)NC1=O)CCCN2C(C)=O (stereo partly drawn) [I-651, Ac-PL3-Asp-Ile-B5-Asp-Glu-Ser-Ala-Phe-Gln-S8-Phe-BztA-Gln-NH2]	6.73	6.73	2.167	48 (≈ 91.2 µg/mL)		
CC[C@H](C)[C@@H]1NC(=O)[C@H](CC(=O)O)NC(=O)[C@]2(CC=CCCCC3(CCCC=CCCCCCC[C@@](C)(C(=O)N[C@@H](Cc4ccccc4)C(=O)N[C@@H](Cc4csc5ccccc45)C(=O)N[C@@H](CCC(N)=O)C(N)=O)NC(=O)[C@H](CCC(N)=O)NC(=O)[C@H](Cc4ccccc4)NC(=O)[C@H](C)NC(=O)[C@H](CO)NC(=O)[C@H](CCC(=O)O)NC(=O)[C@H](CC(=O)O)NC3=O)NC1=O)CCCN2C(C)=O (stereo partly drawn) [I-652, Ac-PL3-Asp-Ile-B5-Asp-Glu-Ser-Ala-Phe-Gln-S8-Phe-BztA-Gln-NH2]	7.14	7.14	2.233	48 (≈ 91.2 µg/mL)		
CC[C@H](C)[C@@H]1NC(=O)[C@H](CC(=O)O)NC(=O)[C@]2(CC=CCCCC3(CCCC=CCCCCCC[C@@](C)(C(=O)N[C@@H](Cc4ccccc4)C(=O)N[C@@H](Cc4csc5ccccc45)C(=O)N[C@@H](CCC(N)=O)C(N)=O)NC(=O)[C@H](CCC(N)=O)NC(=O)[C@H](Cc4ccccc4)NC(=O)[C@H](C)NC(=O)[C@H](Cc4c[nH]c5ccccc45)NC(=O)[C@H](CCC(=O)O)NC(=O)[C@H](CC(=O)O)NC3=O)NC1=O)CCCN2C(C)=O (stereo partly drawn) [I-655, Ac-PL3-Asp-Ile-B5-Asp-Glu-Trp-Ala-Phe-Gln-S8-Phe-BztA-Gln-NH2]	6.74				2.69	46 (≈ 91.9 µg/mL)
CCCC[C@@H]1NC(=O)[C@H](CCC(=O)O)NC(=O)[C@H](CC(=O)O)NC(=O)C2(CCCC=CCCCCCC[C@@](C)(C(=O)N[C@@H](Cc3ccccc3)C(=O)N[C@@H](Cc3csc4ccccc34)C(=O)N[C@@H](CCC(N)=O)C(N)=O)NC(=O)[C@H](CCC(N)=O)NC(=O)[C@H](Cc3ccccc3)NC(=O)[C@H](C)NC1=O)CCCC=CC[C@]1(CCCN1C(C)=O)C(=O)N[C@@H](CC(=O)O)C(=O)N[C@@H]([C@@H](C)CC)C(=O)N2 (stereo partly drawn) [I-657, Ac-PL3-Asp-Ile-B5-Asp-Glu-nLeu-Ala-Phe-Gln-S8-Phe-BztA-Gln-NH2]	7.34	7.34	2.767	40 (≈ 77 µg/mL)		
CC[C@H](C)[C@@H]1NC(=O)[C@H](CC(=O)O)NC(=O)[C@]2(CC=CCCCC3(CCCC=CCCCCCC[C@@](C)(C(=O)N[C@@H](Cc4ccccc4)C(=O)N[C@@H](Cc4csc5ccccc45)C(=O)N[C@@H](CCC(N)=O)C(N)=O)NC(=O)[C@H](CCC(N)=O)NC(=O)[C@H](Cc4ccccc4)NC(=O)[C@H](CC(C)C)NC(=O)[C@H](C)NC(=O)[C@H](CCC(=O)O)NC(=O)[C@H](CC(=O)O)NC3=O)NC1=O)CCCN2C(C)=O (stereo partly drawn) [I-659, Ac-PL3-Asp-Ile-B5-Asp-Glu-Ala-Leu-Phe-Gln-S8-Phe-BztA-Gln-NH2]	6.37	6.37	2.903	48 (≈ 92.4 µg/mL)		

Further compounds by rising pIC50 [1, 4], results first:

pIC50 [1, 4]	pIC50 ([1]; read-out: FP EC50)	CHI Log D [2]	Solubility [3] [µM]	chromatographic logD ([2]; pH 7.4, CHI Log D)	Solubility ([3]; Solubility (uM)) [µM]	Compound
6.26	6.26	2.859	48 (≈ 92.4 µg/mL)			CC[C@H](C)[C@@H]1NC(=O)[C@H](CC(=O)O)NC(=O)[C@]2(CC=CCCCC3(CCCC=CCCCCCC[C@@](C)(C(=O)N[C@@H](Cc4ccccc4)C(=O)N[C@@H](Cc4csc5ccccc45)C(=O)N[C@@H](CCC(N)=O)C(N)=O)NC(=O)[C@H](CCC(N)=O)NC(=O)[C@H](Cc4ccccc4)NC(=O)[C@H](CC(C)C)NC(=O)[C@H](C)NC(=O)[C@H](CCC(=O)O)NC(=O)[C@H](CC(=O)O)NC3=O)NC1=O)CCCN2C(C)=O (stereo partly drawn) [I-658, Ac-PL3-Asp-Ile-B5-Asp-Glu-Ala-Leu-Phe-Gln-S8-Phe-BztA-Gln-NH2]
6.35	6.35	2.677	50 (≈ 96.3 µg/mL)			CC[C@H](C)[C@@H]1NC(=O)[C@H](CC(=O)O)NC(=O)[C@]2(CC=CCCCC3(CCCC=CCCCCCC[C@@](C)(C(=O)N[C@@H](Cc4ccccc4)C(=O)N[C@@H](Cc4csc5ccccc45)C(=O)N[C@@H](CCC(N)=O)C(N)=O)NC(=O)[C@H](CCC(N)=O)NC(=O)[C@H](Cc4ccccc4)NC(=O)[C@H](C)NC(=O)[C@H](CC(C)C)NC(=O)[C@H](CCC(=O)O)NC(=O)[C@H](CC(=O)O)NC3=O)NC1=O)CCCN2C(C)=O (stereo partly drawn) [I-647, Ac-PL3-Asp-Ile-B5-Asp-Glu-Leu-Ala-Phe-Gln-S8-Phe-BztA-Gln-NH2]
6.63	6.63	2.721	46 (≈ 88.6 µg/mL)			CC[C@H](C)[C@@H]1NC(=O)[C@H](CC(=O)O)NC(=O)[C@]2(CC=CCCCC3(CCCC=CCCCCCC[C@@](C)(C(=O)N[C@@H](Cc4ccccc4)C(=O)N[C@@H](Cc4csc5ccccc45)C(=O)N[C@@H](CCC(N)=O)C(N)=O)NC(=O)[C@H](CCC(N)=O)NC(=O)[C@H](Cc4ccccc4)NC(=O)[C@H](C)NC(=O)[C@H](CC(C)C)NC(=O)[C@H](CCC(=O)O)NC(=O)[C@H](CC(=O)O)NC3=O)NC1=O)CCCN2C(C)=O (stereo partly drawn) [I-648, Ac-PL3-Asp-Ile-B5-Asp-Glu-Leu-Ala-Phe-Gln-S8-Phe-BztA-Gln-NH2]
6.68	6.68	2.677	41 (≈ 80.3 µg/mL)			CC[C@H](C)[C@@H]1NC(=O)[C@H](CC(=O)O)NC(=O)[C@]2(CC=CCCCC3(CCCC=CCCCCCC[C@@](C)(C(=O)N[C@@H](Cc4ccccc4)C(=O)N[C@@H](Cc4csc5ccccc45)C(=O)N[C@@H](CCC(N)=O)C(N)=O)NC(=O)[C@H](CCC(N)=O)NC(=O)[C@H](Cc4ccccc4)NC(=O)[C@H](C)NC(=O)[C@H](Cc4ccccc4)NC(=O)[C@H](CCC(=O)O)NC(=O)[C@H](CC(=O)O)NC3=O)NC1=O)CCCN2C(C)=O (stereo partly drawn) [I-649, Ac-PL3-Asp-Ile-B5-Asp-Glu-Phe-Ala-Phe-Gln-S8-Phe-BztA-Gln-NH2]
6.97	6.97	2.07	39 (≈ 75.7 µg/mL)			CC[C@H](C)[C@@H]1NC(=O)[C@H](CC(=O)O)NC(=O)[C@]2(CC=CCCCC3(CCCC=CCCCCCC[C@@](C)(C(=O)N[C@@H](Cc4ccccc4)C(=O)N[C@@H](Cc4csc5ccccc45)C(=O)N[C@@H](CCC(N)=O)C(N)=O)NC(=O)[C@H](CCC(N)=O)NC(=O)[C@H](Cc4ccccc4)NC(=O)[C@H](C)NC(=O)[C@H](CCC(N)=O)NC(=O)[C@H](CCC(=O)O)NC(=O)[C@H](CC(=O)O)NC3=O)NC1=O)CCCN2C(C)=O (stereo partly drawn) [I-653, Ac-PL3-Asp-Ile-B5-Asp-Glu-Gln-Ala-Phe-Gln-S8-Phe-BztA-Gln-NH2]
7.14	7.14	2.736	40 (≈ 77 µg/mL)			CCCC[C@@H]1NC(=O)[C@H](CCC(=O)O)NC(=O)[C@H](CC(=O)O)NC(=O)C2(CCCC=CCCCCCC[C@@](C)(C(=O)N[C@@H](Cc3ccccc3)C(=O)N[C@@H](Cc3csc4ccccc34)C(=O)N[C@@H](CCC(N)=O)C(N)=O)NC(=O)[C@H](CCC(N)=O)NC(=O)[C@H](Cc3ccccc3)NC(=O)[C@H](C)NC1=O)CCCC=CC[C@]1(CCCN1C(C)=O)C(=O)N[C@@H](CC(=O)O)C(=O)N[C@@H]([C@@H](C)CC)C(=O)N2 (stereo partly drawn) [I-656, Ac-PL3-Asp-Ile-B5-Asp-Glu-nLeu-Ala-Phe-Gln-S8-Phe-BztA-Gln-NH2]
